Data taken from patent US8865700B2, “Collagen stimulators and their use in the treatment of skin” (Avon Products, Inc., priority 2012, dated 2014).

Test system: Normal Human dermal fibroblasts
Experiment: Procollagen assay (Procollagen Type-I C-Peptide EIA) in conditioned media of treated fibroblasts
Assay type: cell-based
Conditions: 0.0005% compound, 48 hours, ELISA, p<0.05
Description: Normal Human dermal fibroblasts were grown in DMEM (Mediatech; cat. #: 15-013-CV) containing 10% Fetal Bovine Serum (Perbio; cat. #: SH30070.03), Penicillin/Streptomycin (Mediatech, Cat #30-001-C1), L-Glutamine (Mediatech; cat. #: 25-005-CI) at 37° C. and 10% CO2. Cells were stripped of serum overnight, followed by treatment with the compound of Formula I(b) (0.0005%) or vehicle (DMSO), in the absence of serum for 48 hours.
Reading was measured at 450 nm using a spectrophotometer.
Human dermal fibroblasts treated with 0.0005% the compound of Formula I(b) for 48 hours were analyzed by ELISA for expression levels of pro-collagen. […] All values are statistically significant at p<0.05.

Structure (SMILES): N#Cc1cccc(CN2CCNC(=O)CC2c2nccs2)c1 (centres unmarked) [Formula I(b)]
- Procollagen (serum-free, relative to vehicle (DMSO) control = 100%, 450 nm): 146%
- pro-collagen expression level relative to control, vehicle treated cells: significant increase
